From patent US10988523B2, “Modified lipidated Relaxin B chain peptides and their therapeutic use” (Sanofi, priority 2018, dated 2021)
*1 amine or outer side, *2 acyl side, *3 side chain or, on linkers, in order; H or OH if unused. Where a SMILES comes first, the peptide text is derived from it. Side-chain parts run from the residue outwards. [ ]: non-standard residue; d: D form. The star is where a group is joined. γGlu = O=C(O)[C@H](CCC(=O)[*:2])N[*:1]; Stearoyl = CCCCCCCCCCCCCCCCCC(=O)*; Palmitoyl = CCCCCCCCCCCCCCCC(=O)*; Myristoyl = CCCCCCCCCCCCCC(=O)*; Cit = NC(=O)NCCC[C@H](N)C(=O)O; PEG4 = NCCOCCOCCOCCOCCC(=O)O; αMeK = C[C@](N)(CCCCN)C(=O)O; Lauroyl = CCCCCCCCCCCC(=O)*; Nle = CCCC[C@H](N)C(=O)O; AEEA = NCCOCCOCC(=O)O; Aib = CC(C)(N)C(=O)O

These molecules were tested against T1, RXFP1 (Homo sapiens, UniProt Q9HBX9) (assay: OVCAR5 cAMP assay (HTRF), RXFP1 agonist activity). Conditions: OVCAR5 cells, cAMP HTRF; read-out: EC50 (nM), OVCAR 5 cells (cAMP).
T1 construct: OVCAR5 cells expressing endogenous RXFP1; endogenous in cells; host or cells: OVCAR5 cells
T1 sequence (Q9HBX9 1-757): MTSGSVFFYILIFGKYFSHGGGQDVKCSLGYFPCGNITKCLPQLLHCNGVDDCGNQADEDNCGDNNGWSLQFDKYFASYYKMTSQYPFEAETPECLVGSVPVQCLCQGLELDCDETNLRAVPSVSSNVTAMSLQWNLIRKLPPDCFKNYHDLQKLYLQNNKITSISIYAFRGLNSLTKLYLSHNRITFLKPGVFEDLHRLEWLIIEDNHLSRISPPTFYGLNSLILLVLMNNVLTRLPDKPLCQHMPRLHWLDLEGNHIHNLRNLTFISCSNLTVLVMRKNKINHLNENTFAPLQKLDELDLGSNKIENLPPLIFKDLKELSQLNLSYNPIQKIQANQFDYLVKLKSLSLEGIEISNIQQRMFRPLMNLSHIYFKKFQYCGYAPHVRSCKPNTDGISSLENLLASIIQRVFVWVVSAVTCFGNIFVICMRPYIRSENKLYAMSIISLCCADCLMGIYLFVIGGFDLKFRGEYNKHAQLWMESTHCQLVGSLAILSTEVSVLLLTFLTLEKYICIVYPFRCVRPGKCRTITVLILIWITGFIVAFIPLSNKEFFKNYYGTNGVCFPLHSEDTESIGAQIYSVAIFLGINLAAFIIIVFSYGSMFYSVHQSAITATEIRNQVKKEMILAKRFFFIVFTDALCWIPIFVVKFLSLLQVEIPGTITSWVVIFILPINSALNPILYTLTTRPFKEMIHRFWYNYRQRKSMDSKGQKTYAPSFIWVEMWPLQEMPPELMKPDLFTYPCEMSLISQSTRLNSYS
Format: cell-based
Method in brief: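 OVCAR5 cells (endogenous RXFP1) pretreated 40 min at 37° C with 1 mM IBMX, then exposed to peptides in serum-free medium for 30 min at 37° C. Lysate cAMP read by HTRF; EC50 from variable-slope sigmoidal fit; Emax as % of H2-relaxin maximal cAMP in same run.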

Row | EC50 [nM] | Structure (SMILES)
1 | 1 | CCCCCCCCCCCCCCCCCC(=O)N[C@@H](CCC(=O)N[C@@H](CCC(=O)N[C@@H](CCC(=O)NCCOCCOCC(=O)NCCOCCOCC(=O)NCCOCCOCC(=O)NCCCC[C@H](NC(=O)[C@H](CCCCNC(C)=O)NC(=O)[C@H](CCCCN)NC(=O)[C@H](CCCNC(N)=O)NC(=O)[C@](C)(CCCCN)NC(=O)[C@H](CO)NC(=O)[C@H](Cc1c[nH]c2ccccc12)NC(=O)[C@@H](NC(=O)[C@H](CO)NC(=O)[C@H](CCCC)NC(=O)CNC(=O)[C@H](CCC(=O)O)NC(=O)C(C)(C)NC(=O)C(C)(C)NC(=O)[C@@H](NC(=O)[C@H](CCCCNC(C)=O)NC(=O)[C@H](C)NC(=O)[C@H](CCCNC(=N)N)NC(=O)[C@@H](NC(=O)[C@H](CCCCN)NC(=O)[C@H](CCC(=O)O)NC(=O)[C@H](CCCNC(=N)N)NC(=O)CNC(=O)[C@H](CCC(=O)O)NC(=O)[C@H](CC(C)C)NC(C)=O)C(C)C)[C@@H](C)CC)[C@@H](C)O)C(N)=O)C(=O)O)C(=O)O)C(=O)O [compound 129] (Ac-LEGREKVRAK(Ac)I[Aib][Aib]EG[Nle]STWS[αMeK][Cit]KK(Ac)K([AEEA-AEEA-AEEA-γGlu-γGlu-γGlu-Stearoyl])-NH2)

Same assay, conditions: OVCAR-5; maximal cAMP relative to H2-relaxin maximum (100%); read-out: EMax, OVCAR 5 cells (cAMP)

Row | Structure (SMILES) | Emax [%]
2 | CCCCCCCCCCCCCCCCCC(=O)N[C@@H](CCC(=O)N[C@@H](CCC(=O)N[C@@H](CCC(=O)NCCOCCOCC(=O)NCCOCCOCC(=O)NCCOCCOCC(=O)NCCCC[C@H](NC(=O)[C@H](CCCCNC(C)=O)NC(=O)[C@H](C)NC(=O)[C@H](C)NC(=O)C(C)(C)NC(=O)[C@H](CO)NC(=O)[C@H](Cc1c[nH]c2ccccc12)NC(=O)[C@@H](NC(=O)[C@H](CO)NC(=O)[C@H](CCCC)NC(=O)CNC(=O)[C@H](CCC(=O)O)NC(=O)C(C)(C)NC(=O)C(C)(C)NC(=O)[C@@H](NC(=O)[C@H](CCCCNC(C)=O)NC(=O)[C@H](C)NC(=O)[C@H](CCCNC(=N)N)NC(=O)[C@@H](NC(=O)[C@H](CCCCN)NC(=O)[C@H](CCC(=O)O)NC(=O)[C@H](CCCNC(=N)N)NC(=O)CNC(=O)[C@H](CCC(=O)O)NC(=O)[C@H](CC(C)C)NC(C)=O)C(C)C)[C@@H](C)CC)[C@@H](C)O)C(N)=O)C(=O)O)C(=O)O)C(=O)O [compound 155] (Ac-LEGREKVRAK(Ac)I[Aib][Aib]EG[Nle]STWS[Aib]AAK(Ac)K([AEEA-AEEA-AEEA-γGlu-γGlu-γGlu-Stearoyl])-NH2) | 95
3 | CCCCCCCCCCCCCCCC(=O)N[C@@H](CCC(=O)N[C@@H](CCC(=O)N[C@@H](CCC(=O)NCCOCCOCC(=O)NCCOCCOCC(=O)NCCCC[C@H](NC(=O)[C@H](CCCCNC(C)=O)NC(=O)[C@H](CCCCN)NC(=O)[C@H](CCCNC(=N)N)NC(=O)C(C)(C)NC(=O)[C@H](CO)NC(=O)[C@H](Cc1c[nH]c2ccccc12)NC(=O)[C@@H](NC(=O)[C@H](CO)NC(=O)[C@H](CCCC)NC(=O)CNC(=O)[C@H](CCC(=O)O)NC(=O)C(C)(C)NC(=O)C(C)(C)NC(=O)[C@@H](NC(=O)[C@H](CCCCNC(C)=O)NC(=O)[C@H](C)NC(=O)[C@H](CCCNC(=N)N)NC(=O)[C@@H](NC(=O)[C@H](CCCCN)NC(=O)[C@H](CCC(=O)O)NC(=O)[C@H](CCCNC(=N)N)NC(=O)CNC(=O)[C@H](CCC(=O)O)NC(=O)[C@H](CC(C)C)NC(C)=O)C(C)C)[C@@H](C)CC)[C@@H](C)O)C(N)=O)C(=O)O)C(=O)O)C(=O)O [compound 62] (Ac-LEGREKVRAK(Ac)I[Aib][Aib]EG[Nle]STWS[Aib]RKK(Ac)K([AEEA-AEEA-γGlu-γGlu-γGlu-Palmitoyl])-NH2) | 87
4 | CCCCCCCCCCCCCCCCCC(=O)N[C@@H](CCC(=O)N[C@@H](CCC(=O)N[C@@H](CCC(=O)NCCOCCOCC(=O)NCCOCCOCC(=O)NCCOCCOCC(=O)NCCCC[C@H](NC(=O)[C@H](CCCCNC(C)=O)NC(=O)[C@H](CCCCN)NC(=O)[C@H](CCCNC(N)=O)NC(=O)[C@](C)(CCCCN)NC(=O)[C@H](CO)NC(=O)[C@H](Cc1c[nH]c2ccccc12)NC(=O)[C@@H](NC(=O)[C@H](CO)NC(=O)[C@H](CCCC)NC(=O)CNC(=O)[C@H](CCC(=O)O)NC(=O)C(C)(C)NC(=O)C(C)(C)NC(=O)[C@@H](NC(=O)[C@H](CCCCNC(C)=O)NC(=O)[C@H](C)NC(=O)[C@H](CCCNC(=N)N)NC(=O)[C@@H](NC(=O)[C@H](CCCCN)NC(=O)[C@H](CCC(=O)O)NC(=O)[C@H](CCCNC(=N)N)NC(=O)CNC(=O)[C@H](CCC(=O)O)NC(=O)[C@H](CC(C)C)NC(C)=O)C(C)C)[C@@H](C)CC)[C@@H](C)O)C(N)=O)C(=O)O)C(=O)O)C(=O)O [compound 129] (Ac-LEGREKVRAK(Ac)I[Aib][Aib]EG[Nle]STWS[αMeK][Cit]KK(Ac)K([AEEA-AEEA-AEEA-γGlu-γGlu-γGlu-Stearoyl])-NH2) | 89
5 | CCCCCCCCCCCCCCCCCC(=O)N[C@@H](CCC(=O)N[C@@H](CCC(=O)N[C@@H](CCC(=O)N[C@@H](CCC(=O)N[C@@H](CCC(=O)NCCCC[C@H](NC(=O)CCOCCOCCOCCOCCNC(=O)CCOCCOCCOCCOCCNC(=O)[C@H](CCCCN)NC(=O)[C@H](CCCCN)NC(=O)[C@H](CCCCN)NC(=O)[C@H](CCCNC(=N)N)NC(=O)C(C)(C)NC(=O)[C@H](CO)NC(=O)[C@H](Cc1c[nH]c2ccccc12)NC(=O)[C@@H](NC(=O)[C@H](CO)NC(=O)[C@H](CCCC)NC(=O)CNC(=O)[C@H](CCC(=O)O)NC(=O)C(C)(C)NC(=O)C(C)(C)NC(=O)[C@@H](NC(=O)[C@H](CCC(N)=O)NC(=O)[C@H](C)NC(=O)[C@H](CCCNC(=N)N)NC(=O)[C@@H](NC(=O)[C@H](CCCCN)NC(=O)[C@H](CCC(=O)O)NC(=O)[C@H](CCCNC(=N)N)NC(=O)CNC(=O)[C@H](CCC(=O)O)NC(=O)[C@H](CC(C)C)NC(C)=O)C(C)C)[C@@H](C)CC)[C@@H](C)O)C(N)=O)C(=O)O)C(=O)O)C(=O)O)C(=O)O)C(=O)O [compound 122] (Ac-LEGREKVRAQI[Aib][Aib]EG[Nle]STWS[Aib]RKKK[PEG4][PEG4]K([γGlu-γGlu-γGlu-γGlu-γGlu-Stearoyl])-NH2) | 93

Continued, values first:

Row | Emax [%] | Structure (SMILES)
6 | 93 | CCCCCCCCCCCCCC(=O)N[C@@H](CCC(=O)N[C@@H](CCC(=O)N[C@@H](CCC(=O)N[C@@H](CCC(=O)NCCCC[C@H](NC(=O)COCCOCCNC(=O)COCCOCCNC(=O)COCCOCCNC(=O)COCCOCCNC(=O)[C@H](CCCCNC(C)=O)NC(=O)[C@H](C)NC(=O)[C@H](CCCNC(=N)N)NC(=O)[C@](C)(CCCCN)NC(=O)[C@H](CO)NC(=O)[C@H](Cc1ccccc1)NC(=O)[C@@H](NC(=O)[C@H](CO)NC(=O)[C@H](CCC(N)=O)NC(=O)CNC(=O)[C@H](CCC(=O)O)NC(=O)C(C)(C)NC(=O)C(C)(C)NC(=O)[C@@H](NC(=O)[C@H](CCCCNC(C)=O)NC(=O)[C@H](C)NC(=O)[C@H](CCCNC(=N)N)NC(=O)[C@@H](NC(=O)[C@H](CCCCN)NC(=O)[C@H](CCC(=O)O)NC(=O)[C@H](CCCNC(=N)N)NC(=O)CNC(=O)[C@H](CCC(=O)O)NC(=O)[C@H](CC(C)C)NC(C)=O)C(C)C)[C@@H](C)CC)[C@@H](C)O)C(N)=O)C(=O)O)C(=O)O)C(=O)O)C(=O)O [compound 190] (Ac-LEGREKVRAK(Ac)I[Aib][Aib]EGQSTFS[αMeK]RAK(Ac)[AEEA][AEEA][AEEA][AEEA]K([γGlu-γGlu-γGlu-γGlu-Myristoyl])-NH2)
7 | 94 | CCCCCCCCCCCC(=O)N[C@@H](CCC(=O)N[C@@H](CCC(=O)N[C@@H](CCC(=O)N[C@@H](CCC(=O)NCCCC[C@H](NC(=O)COCCOCCNC(=O)COCCOCCNC(=O)COCCOCCNC(=O)COCCOCCNC(=O)[C@H](CCCCNC(C)=O)NC(=O)[C@H](C)NC(=O)[C@H](CCCNC(=N)N)NC(=O)[C@](C)(CCCCN)NC(=O)[C@H](CO)NC(=O)[C@H](Cc1ccccc1)NC(=O)[C@@H](NC(=O)[C@H](CO)NC(=O)[C@H](CCC(N)=O)NC(=O)CNC(=O)[C@H](CCC(=O)O)NC(=O)C(C)(C)NC(=O)C(C)(C)NC(=O)[C@@H](NC(=O)[C@H](CCCCNC(C)=O)NC(=O)[C@H](C)NC(=O)[C@H](CCCNC(=N)N)NC(=O)[C@@H](NC(=O)[C@H](CCCCN)NC(=O)[C@H](CCC(=O)O)NC(=O)[C@H](CCCNC(=N)N)NC(=O)CNC(=O)[C@H](CCC(=O)O)NC(=O)[C@H](CC(C)C)NC(C)=O)C(C)C)[C@@H](C)CC)[C@@H](C)O)C(N)=O)C(=O)O)C(=O)O)C(=O)O)C(=O)O [compound 161] (Ac-LEGREKVRAK(Ac)I[Aib][Aib]EGQSTFS[αMeK]RAK(Ac)[AEEA][AEEA][AEEA][AEEA]K([γGlu-γGlu-γGlu-γGlu-Lauroyl])-NH2)
